Laboratory results reported in patent publication US4112105A, “Anti-inflammatory 3-(substituted-amino)-2,1-benzisothiazoles” (Sterling Drug Inc., priority 1977, dated 1978).
Where a name gives a salt, the structure may show the parent alone.

Columns and labels:
[1] = inhibition of adjuvant-induced arthritis test; type: in vivo; conditions: for inhibition in vivo at 120 µmol/kg: 0.12 mMole/kg
Procedure: Anti-inflammatory activity was determined using (1) the inhibition of carrageenin-induced foot edema test essentially described by Van Arman et al., J. Pharmocol. Exptl. Therap. […] J. Vet.
All test compounds were administered orally.

[2] = inhibition of carrageenin-induced foot edema test; type: in vivo; conditions: for inhibition in vivo at 80 µmol/kg: 0.08 mMole/kg; for inhibition in vivo at 324 µmol/kg: 0.324 mMole/kg; for side effects (footnote e): 4 hours post medication
Procedure: (§1) Anti-inflammatory activity was determined using (1) the inhibition of carrageenin-induced foot edema test essentially described by Van Arman et al., J. Pharmocol. Exptl. Therap. 150, 328 (1965) as a modification of the procedure of Winter et al., Proc. Soc. Exp. Biol. and Med. 111, 544 (1962) and (2) a modification of the inhibition of adjuvant-induced arthritis test described by Pearson, J. Chronic Diseases 16, 863 (1963) and Glenn et al., Am. J. Vet. Res. 26, 1180 (1965).
Representative examples of the compounds of this invention have been tested in the carrageenin edema and adjuvant arthritis tests as described hereinabove and found to have anti-inflammatory activity. Test data, given as percent inhibition at a dose expressed in millimoles (mMole/kg) are presented hereinbelow. All test compounds were administered orally.
The data for a number of examples are presented in several separate groups each representing the test results wherein anti-inflammatory activity was measured at one or more dose levels against a single set of controls.

[3] = acute oral toxicity, standard toxicological test procedures; conditions: in vivo; for LD50 at 168 h: acute oral, read-out: 7-day LD50
Procedure: Acute oral toxicity was determined for Examples 1E and (g) employing standard toxicological test procedures.

[4] = anti-inflammatory activity (test not given); conditions: in vivo
Procedure: as §1

With `CCN(CC)CCCC(C)Nc1snc2cc(Cl)ccc12` (stereo not drawn) [Example 1E, 6-chloro-3-[4-(diethylamino)-1-methylbutylamino]-2,1-benzisothiazole diphosphate] the “toxicity in adjuvant arthritis test” value ([1]; oral, 0.24 mMole/kg) was “toxic”, the “Carrageenin edema % inhibition” value ([2]; oral, 0.03 mMole/kg) was 4% and the “Carrageenin edema % inhibition” value ([2]; oral, 0.09 mMole/kg) was 25%. The “Carrageenin edema % inhibition” value ([2]; oral, 0.27 mMole/kg) was 39%, the “side effects (footnote c)” value ([2]; oral, 0.64 mMole/kg) was “hypothermia” and the inhibition in vivo at 640 µmol/kg ([2]; po, 0.64 mMole/kg) was 60%. It also gave an LD50 at 168 h [3] of 1430 mg/kg.
With `CN(C)CCCCNc1snc2cc(Cl)ccc12` [Example 7C, 6-chloro-3-{[4-(dimethylamino)butyl]amino}-2,1-benzisothiazole] the inhibition in vivo at 324 µmol/kg ([1]; po, 0.324 mMole/kg) was 25%, the inhibition in vivo at 30 µmol/kg ([2]; po, 0.03 mMole/kg) was 0% and the inhibition in vivo at 90 µmol/kg ([2]; po, 0.09 mMole/kg) was 9%. It also gave an inhibition in vivo at 270 µmol/kg ([2]; po, 0.27 mMole/kg) of 32%.
Compound `CCN(CCO)CCCC(C)Nc1snc2cc(Cl)ccc12` (stereo not drawn) [Example 11, 6-chloro-3-<{4-[N-ethyl-N-(2-hydroxyethyl)amino]-1-methylbutyl}amino>-2,1-benzisothiazole 1,5-naphthalenedisulfonate] has an inhibition in vivo at 240 µmol/kg ([1]; po, 0.24 mMole/kg) of 54%, an inhibition in vivo at 320 µmol/kg ([1]; po, 0.32 mMole/kg) of 67% and an inhibition in vivo at 324 µmol/kg ([1]; po, 0.324 mMole/kg) of 36%. The inhibition in vivo at 400 µmol/kg ([1]; po, 0.40 mMole/kg) was 71%, the inhibition in vivo at 80 µmol/kg ([2]; po) was 18% and the inhibition in vivo at 324 µmol/kg ([2]; po) was 38%.
Compound `CCN(CC)Cc1cc(Nc2snc3cc(Cl)ccc23)ccc1O` [Example 15, 6-chloro-3-{[3-(diethylamino)methyl-4-hydroxyphenyl]amino}-2,1-benzisothiazole] has an inhibition in vivo at 320 µmol/kg ([2]; po, 0.32 mMole/kg) of 30% and an inhibition in vivo at 640 µmol/kg ([2]; po, 0.64 mMole/kg) of 32%.
With `Clc1ccc2c(NCCN3CCCC3)snc2c1` [Example 3C, 6-chloro-3-{[2-(1-pyrrolidinyl)-ethyl]amino}-2,1-benzisothiazole] the inhibition in vivo at 324 µmol/kg ([1]; po, 0.324 mMole/kg) was 14%, the inhibition in vivo at 30 µmol/kg ([2]; po, 0.03 mMole/kg) was 15% and the inhibition in vivo at 90 µmol/kg ([2]; po, 0.09 mMole/kg) was 12%. For the same compound, the inhibition in vivo at 270 µmol/kg ([2]; po, 0.27 mMole/kg) was 32%, the inhibition in vivo at 320 µmol/kg ([2]; po, 0.32 mMole/kg) was 29% and the inhibition in vivo at 640 µmol/kg ([2]; po, 0.64 mMole/kg) was 52%.
With `CCN(CC)CCCC(C)Nc1snc2ccc(Cl)cc12` (stereo not drawn) [Example 10] the “side effects (footnote e)” value ([2]; oral, 0.32 mMole/kg) was “skeletal muscle relaxation, hypothermia and ptosis”, the “side effects (footnote e)” value ([2]; oral, 0.64 mMole/kg) was “skeletal muscle relaxation, hypothermia and ptosis” and the inhibition in vivo at 80 µmol/kg ([2]; po) was 0%. It also gave an inhibition in vivo at 320 µmol/kg ([2]; po, 0.32 mMole/kg) of 62%, an inhibition in vivo at 324 µmol/kg ([2]; po) of 15% and an inhibition in vivo at 640 µmol/kg ([2]; po, 0.64 mMole/kg) of 50%.
In the case of `CN1CCN(C(=S)c2ccc(Cl)cc2[N+](=O)[O-])CC1` [Example 4B, 1-(4-chloro-2-nitrothiobenzoyl)-4-methylpiperazine], the inhibition in vivo at 324 µmol/kg ([1]; po, 0.324 mMole/kg) was 0% and the inhibition in vivo at 324 µmol/kg ([2]; po) was 28%.
Compound `CN1CCN(c2snc3ccc(Cl)cc23)CC1` [Example 8, 5-chloro-3-(4-methyl-1-piperazinyl)-2,1-benzisothiazole] has an inhibition in vivo at 324 µmol/kg ([1]; po, 0.324 mMole/kg) of 0%, an inhibition in vivo at 80 µmol/kg ([2]; po) of 15% and an inhibition in vivo at 324 µmol/kg ([2]; po) of 51%.
For `CCN(CC)CCCC(C)NC(=S)c1ccc(Cl)cc1[N+](=O)[O-].Cl` (stereo not drawn) [Example 1C, 4-chloro-N-[4-(diethylamino)-1-methylbutyl]-2-nitrothiobenzamide hydrochloride], the “side effects (footnote b)” value ([1]; oral, 0.324 mMole/kg) was “loss of hair, yellow urine”, the inhibition in vivo at 324 µmol/kg ([1]; po, 0.324 mMole/kg) was 60% and the inhibition in vivo at 324 µmol/kg ([2]; po) was 38%.
With `CCN(CC)CCCC(C)NC(=O)c1ccc(Cl)cc1[N+](=O)[O-]` (stereo not drawn) [Example 1B, 4-chloro-N-[4-(diethylamino)-1-methylbutyl]-2-nitrobenzamide] the inhibition in vivo at 324 µmol/kg ([1]; po, 0.324 mMole/kg) was 16% and the inhibition in vivo at 324 µmol/kg ([2]; po) was 29%.
With `CCN(CC)Cc1cc(Nc2snc3ccccc23)ccc1O` [Example 16, 3-{[3-(diethylamino)methyl-4-hydroxyphenyl]amino}-2,1-benzisothiazole] the inhibition in vivo at 324 µmol/kg ([1]; po, 0.324 mMole/kg) was 18%, the inhibition in vivo at 80 µmol/kg ([2]; po) was 2% and the inhibition in vivo at 324 µmol/kg ([2]; po) was 55%.
`CN1CCN(c2snc3cc(Cl)ccc23)CC1` [Example 4C, 6-chloro-3-(4-methyl-1-piperazinyl)-2,1-benzisothiazole] showed an inhibition in vivo at 324 µmol/kg ([1]; po, 0.324 mMole/kg) of 10% and an inhibition in vivo at 324 µmol/kg ([2]; po) of 41%.
`Clc1ccc2c(NCCN3CCN(c4ccccc4)CC3)snc2c1` [Example 13, 6-chloro-3-{[2-(4-phenyl-1-piperazinyl)ethyl]amino}-2,1-benzisothiazole] showed an inhibition in vivo at 64 µmol/kg ([2]; po, 0.064 mMole/kg) of 35%, an inhibition in vivo at 80 µmol/kg ([2]; po) of 11% and an inhibition in vivo at 324 µmol/kg ([2]; po) of 16%.
For `CCN(CC)CCCC(C)Nc1snc2ccccc12` (stereo not drawn) [3-[4-(diethylamino)-1-methylbutylamino]-2,1-benzisothiazole], the “anti-inflammatory activity (in words)” value [4] was “useful anti-inflammatory activity”.
With `CN(C)CCNC(=S)c1ccc(Cl)cc1[N+](=O)[O-]` [Example 5B, 4-chloro-N-[2-(dimethylamino)ethyl]-2-nitrothiobenzamide hydrochloride] the inhibition in vivo at 324 µmol/kg ([1]; po, 0.324 mMole/kg) was 2% and the inhibition in vivo at 324 µmol/kg ([2]; po) was 43%.
Work on `CCN(CC)Cc1cc(Nc2snc3ccc(Cl)cc23)ccc1O` [Example 14, 5-chloro-3-{[3-(diethylamino)methyl-4-hydroxyphenyl]amino}-2,1-benzisothiazole] yielded an inhibition in vivo at 80 µmol/kg ([1]; po, 0.08 mMole/kg) of 0%, an inhibition in vivo at 80 µmol/kg ([2]; po) of 22% and an inhibition in vivo at 324 µmol/kg ([2]; po) of 72%.
Compound `CN(C)CCCNC(=S)c1ccc(Cl)cc1[N+](=O)[O-]` [Example 6B, 4-chloro-N-[3-(dimethylamino)propyl]-2-nitrothiobenzamide hydrochloride] has an inhibition in vivo at 324 µmol/kg ([1]; po, 0.324 mMole/kg) of 8% and an inhibition in vivo at 324 µmol/kg ([2]; po) of 39%.
Work on `CN(C)CCNc1snc2cc(Cl)ccc12` [Example 5C] yielded an inhibition in vivo at 324 µmol/kg ([1]; po, 0.324 mMole/kg) of 0%, an inhibition in vivo at 30 µmol/kg ([2]; po, 0.03 mMole/kg) of 19% and an inhibition in vivo at 90 µmol/kg ([2]; po, 0.09 mMole/kg) of 14%. For the same compound, the inhibition in vivo at 270 µmol/kg ([2]; po, 0.27 mMole/kg) was 29% and the inhibition in vivo at 324 µmol/kg ([2]; po) was 28%.
For `CN(C)CCNc1snc2ccc(Cl)cc12` [Example 9], the inhibition in vivo at 80 µmol/kg ([2]; po) was 8%, the inhibition in vivo at 320 µmol/kg ([2]; po, 0.32 mMole/kg) was 0% and the inhibition in vivo at 324 µmol/kg ([2]; po) was 0%. It also gave an inhibition in vivo at 640 µmol/kg ([2]; po, 0.64 mMole/kg) of 23%.
Compound `CCN(CC)CC(O)CNc1snc2cc(Cl)ccc12` (stereo not drawn) [Example 12, 6-chloro-3-{[3-(diethylamino)-2-hydroxypropyl]amino}-2,1-benzisothiazole] has an inhibition in vivo at 324 µmol/kg ([1]; po, 0.324 mMole/kg) of 16%, an inhibition in vivo at 80 µmol/kg ([2]; po) of 14% and an inhibition in vivo at 324 µmol/kg ([2]; po) of 35%.
`CCN(CC)CCCC(C)Nc1snc2ccccc12` (stereo not drawn) [(g), 3-[4-(diethylamino)-1-methylbutylamino]-2,1-benzisothiazole diphosphate, reference compound] gave an inhibition in vivo at 30 µmol/kg ([1]; po, 0.03 mMole/kg) of 0%, an inhibition in vivo at 60 µmol/kg ([1]; po, 0.06 mMole/kg) of 1% and an inhibition in vivo at 120 µmol/kg ([1]; po) of 4%. It also gave an inhibition in vivo at 240 µmol/kg ([1]; po, 0.24 mMole/kg) of 0%, an inhibition in vivo at 20 µmol/kg ([2]; po, 0.02 mMole/kg) of 0% and an LD50 at 168 h [3] of 1730 mg/kg.
With `CN(C)CCCNc1snc2cc(Cl)ccc12` [Example 6C, 6-chloro-3-{[3-(dimethylamino)propyl]amino}-2,1-benzisothiazole dihydrochloride] the inhibition in vivo at 324 µmol/kg ([1]; po, 0.324 mMole/kg) was 0%, the inhibition in vivo at 30 µmol/kg ([2]; po, 0.03 mMole/kg) was 0% and the inhibition in vivo at 90 µmol/kg ([2]; po, 0.09 mMole/kg) was 24%. For the same compound, the inhibition in vivo at 270 µmol/kg ([2]; po, 0.27 mMole/kg) was 41% and the inhibition in vivo at 324 µmol/kg ([2]; po) was 35%.
For `CCN(CC)CCCC(C)N(C)c1snc2cc(Cl)ccc12` (stereo not drawn) [Example 2C, 6-chloro-3-{[4-(diethylamino)-1-methylbutyl]methylamino}-2,1-benzisothiazole], the “toxicity in adjuvant arthritis test” value ([1]; oral, 0.324 mMole/kg) was “Toxic”, the inhibition in vivo at 72 µmol/kg ([1]; po, 0.072 mMole/kg) was 0% and the inhibition in vivo at 324 µmol/kg ([2]; po) was 71%.
In the case of `CCN(CC)CCCC(C)Nc1snc2cc(Cl)ccc12` (stereo not drawn) [Example 1D, 6-chloro-3-[4-(diethylamino)-1-methylbutylamino]-2,1-benzisothiazole], the “anti-inflammatory activity in adjuvant arthritis assay (in words)” value ([1]; in vivo) was “high degree of anti-inflammatory activity”, the inhibition in vivo at 120 µmol/kg ([1]; po) was 65% and the “anti-inflammatory activity in carrageenin edema assay (in words)” value ([2]; in vivo) was “high degree of anti-inflammatory activity”. The “Carrageenin edema % inhibition” value ([2]; oral, 0.03 mMole/kg) was 19%, the inhibition in vivo at 90 µmol/kg ([2]; po, 0.09 mMole/kg) was 14% and the inhibition in vivo at 270 µmol/kg ([2]; po, 0.27 mMole/kg) was 29%. The “toxicity (in words)” value [3] was “low toxicity”.
For `CN(C)CCCCNC(=S)c1ccc(Cl)cc1[N+](=O)[O-]` [Example 7B, 4-chloro-N-[4-(dimethylamino)butyl]-2-nitrothiobenzamide], the inhibition in vivo at 800 µmol/kg ([1]; po, 0.80 mMole/kg) was 15%, the “side effects (footnote d)” value ([2]; oral, 1.11 mMole/kg) was “salivation” and the inhibition in vivo at 1110 µmol/kg ([2]; po, 1.11 mMole/kg) was 63%.
